Source: US10131652B2, “Pyrimidinyloxy benzene derivatives as herbicides” (E. I. DU PONT DE NEMOURS AND COMPANY, priority 2014, dated 2018)

Tests used:
Type in all cases: in vivo
[1] = system: barnyardgrass (Echinochloa crus-galli); test: Test B pre-/postemergence plant response
Outline: (§1)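 Visual injury rating, 0 (no effect) to 100 (complete control), vs untreated controls after ~10 d greenhouse. Pre: directed soil spray after planting in loam/sand. Post: plants 2–10 cm, 1–2 leaf stage. Compound in non-phytotoxic solvent plus surfactant.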

[2] = system: corn (Zea mays); test: Test B pre-/postemergence plant response; details: 0 to 100 scale, 0 no effect, 100 complete control
Outline: as §1

[3] = system: giant foxtail (Setaria faberii); test: Test B pre-/postemergence plant response
Outline: as §1

[4] = system: pigweed (Amaranthus retroflexus); test: Test B pre-/postemergence plant response
Outline: as §1

[5] = system: wheat (Triticum aestivum); test: Test B pre-/postemergence plant response; details: 0 to 100 scale, 0 no effect, 100 complete control
Outline: as §1

[6] = system: barnyardgrass (Echinochloa crus-galli); test: Test C flooded paddy test plant response; details: Flood, 250 g ai/ha; scale of 0 to 100 where 0 is no effect and 100 is complete control; 13 to 15 days
Outline: (§2)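 Flooded-pot format, 3 cm water over soil maintained for the test duration; test compounds dispensed into the water at the 2-leaf stage. Greenhouse holding 13 to 15 days. Plants evaluated visually relative to untreated controls, 0 meaning no effect and 100 complete control.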

[7] = system: ducksalad (Heteranthera limosa); test: Test C flooded paddy test plant response; details: Flood, 250 g ai/ha; scale of 0 to 100 where 0 is no effect and 100 is complete control; 13 to 15 days
Outline: as §2

[8] = system: rice (Oryza sativa); test: Test C flooded paddy test plant response; details: Flood, 250 g ai/ha; scale of 0 to 100 where 0 is no effect and 100 is complete control; 13 to 15 days
Outline: as §2

[9] = system: small-flower umbrella sedge (Cyperus difformis); test: Test C flooded paddy test plant response; details: Flood, 250 g ai/ha; scale of 0 to 100 where 0 is no effect and 100 is complete control; 13 to 15 days
Outline: as §2

[10] = system: blackgrass (Alopecurus myosuroides); test: Test D pre-/postemergence plant response; details: Postemergence; for Blackgrass plant response rating: scale 0 to 100 (0 no effect, 100 complete control); for Plant response rating, Blackgrass: scale 0 to 100, 0 no effect, 100 complete control
Outline: (§3)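 Greenhouse herbicidal response, both pre- and postemergence applications, with solvent/surfactant formulation. Postemergence plants were at 1- to 4-leaf stage. Visual scores 0–100 relative to controls, taken 13 to 15 days later.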

[11] = system: galium (catchweed bedstraw, Galium aparine); test: Test D pre-/postemergence plant response; details: Postemergence; for Galium plant response rating: scale 0 to 100 (0 no effect, 100 complete control); for Plant response rating, Galium: scale 0 to 100, 0 no effect, 100 complete control
Outline: as §3

[12] = system: johnsongrass (Sorghum halepense); test: Test D pre-/postemergence plant response; details: Postemergence; for Johnsongrass plant response rating: scale 0 to 100 (0 no effect, 100 complete control); for Plant response rating, Johnsongrass: scale 0 to 100, 0 no effect, 100 complete control
Outline: as §3

[13] = system: lambsquarters (Chenopodium album); test: Test D pre-/postemergence plant response; details: Postemergence; for Lambsquarters plant response rating: scale 0 to 100 (0 no effect, 100 complete control); for Plant response rating, Lambsquarters: scale 0 to 100, 0 no effect, 100 complete control
Outline: as §3

[14] = system: large (Lg) crabgrass (Digitaria sanguinalis); test: Test D pre-/postemergence plant response; details: Postemergence; for Crabgrass, Large plant response rating: scale 0 to 100 (0 no effect, 100 complete control); for Plant response rating, Crabgrass, Large: scale 0 to 100, 0 no effect, 100 complete control
Outline: as §3

[15] = system: velvetleaf (Abutilon theophrasti); test: Test D pre-/postemergence plant response; details: Postemergence; for Velvetleaf plant response rating: scale 0 to 100 (0 no effect, 100 complete control); for Plant response rating, Velvetleaf: scale 0 to 100, 0 no effect, 100 complete control
Outline: as §3

[16] = system: winter wheat (Triticum aestivum); test: Test D pre-/postemergence plant response; details: Postemergence; for Wheat plant response rating: scale 0 to 100 (0 no effect, 100 complete control); for Plant response rating, Wheat: scale 0 to 100, 0 no effect, 100 complete control
Outline: as §3

[17] = 31 g ai/ha, Postemergence, 0 to 100 scale, 0 no effect, 100 complete control
[18] = 125 g ai/ha, postemergence, 0 to 100 scale, 0 no effect, 100 complete control
[19] = Preemergence, 31 g ai/ha, 0 to 100 scale (0 no effect, 100 complete control)
[20] = Preemergence, 125 g ai/ha, 0 to 100 scale where 0 is no effect and 100 is complete control

SMILES: Fc1ccc(Oc2ncc(Cl)cn2)c(-c2cc(C(F)F)on2)c1Cl [Compound 96]
- Plant response rating, Barnyardgrass [1, 17]: 10
- Plant response rating, Barnyardgrass [1, 18]: 30
- Barnyardgrass plant response rating [1, 19]: 0
- Plant response rating, Barnyardgrass [1, 20]: 20
- Plant response rating, Corn ([2]; 31 g ai/ha, Postemergence): 0
- Plant response rating, Corn ([2]; 125 g ai/ha, postemergence): 20
- Plant response rating, Foxtail, Giant [3, 17]: 0
- Plant response rating, Foxtail, Giant [3, 18]: 50
- Foxtail, Giant plant response rating [3, 19]: 10
- Plant response rating, Foxtail, Giant [3, 20]: 40
- Plant response rating, Pigweed [4, 17]: 100
- Plant response rating, Pigweed [4, 18]: 100
- Pigweed plant response rating [4, 19]: 90
- Plant response rating, Pigweed [4, 20]: 100
- Plant response rating, Wheat ([5]; 31 g ai/ha, Postemergence): 0
- Plant response rating, Wheat ([5]; 125 g ai/ha, postemergence): 0
- Barnyardgrass plant response rating [6]: 15
- Ducksalad plant response rating [7]: 90
- Rice plant response rating [8]: 30
- Sedge, Umbrella plant response rating [9]: 100
- Blackgrass plant response rating ([10]; 16 g ai/ha): 0
- Blackgrass plant response rating ([10]; 31 g ai/ha): 10
- Plant response rating, Blackgrass ([10]; 62 g ai/ha): 10
- Plant response rating, Blackgrass ([10]; 125 g ai/ha): 20
- Galium plant response rating ([11]; 16 g ai/ha): 70
- Galium plant response rating ([11]; 31 g ai/ha): 90
- Plant response rating, Galium ([11]; 62 g ai/ha): 80
- Plant response rating, Galium ([11]; 125 g ai/ha): 98
- Johnsongrass plant response rating ([12]; 16 g ai/ha): 0
- Johnsongrass plant response rating ([12]; 31 g ai/ha): 0
- Plant response rating, Johnsongrass ([12]; 62 g ai/ha): 5
- Plant response rating, Johnsongrass ([12]; 125 g ai/ha): 10
- Lambsquarters plant response rating ([13]; 16 g ai/ha): 65
- Lambsquarters plant response rating ([13]; 31 g ai/ha): 65
- Plant response rating, Lambsquarters ([13]; 62 g ai/ha): 90
- Plant response rating, Lambsquarters ([13]; 125 g ai/ha): 95
- Crabgrass, Large plant response rating ([14]; 16 g ai/ha): 5
- Crabgrass, Large plant response rating ([14]; 31 g ai/ha): 5
- Plant response rating, Crabgrass, Large ([14]; 62 g ai/ha): 5
- Plant response rating, Crabgrass, Large ([14]; 125 g ai/ha): 10
- Velvetleaf plant response rating ([15]; 16 g ai/ha): 20
- Velvetleaf plant response rating ([15]; 31 g ai/ha): 35
- Plant response rating, Velvetleaf ([15]; 62 g ai/ha): 35
- Plant response rating, Velvetleaf ([15]; 125 g ai/ha): 35
- Wheat plant response rating ([16]; 16 g ai/ha): 0
- Wheat plant response rating ([16]; 31 g ai/ha): 0
- Plant response rating, Wheat ([16]; 62 g ai/ha): 0
- Plant response rating, Wheat ([16]; 125 g ai/ha): 10
